33 compounds from US8486977B2, “1,2,3-triazole derivatives for use as stearoyl-CoA desaturase inhibitors” (GlaxoSmithKline LLC, priority 2007, dated 2013) can be followed below.

Tested on in the first series: not given
Experiment: not given
Settings: not given
On to `Cc1c(C(=O)Nc2ccc(OCc3ccccc3)cc2)nnn1Cc1ccc(F)cc1` [Example 4, 1-[(4-Fluorophenyl)methyl]-5-methyl-N-{4-[(phenylmethyl)oxy]phenyl}-1H-1,2,3-triazole-4-carboxamide], for which the melting point (commonly the temperature of the solid-liquid transition) stood at 139.4 °C.
On to `COc1ccc(NC(=O)c2nnn(Cc3ccc(F)cc3)c2C)cc1OC`, for which the melting point was 119.7 °C.
`Cc1c(C(=O)Nc2ccc(OCCN(C)C)c(CO)c2)nnn1Cc1ccc(Cl)c(Cl)c1` [Example 77, 1-[(3,4-Dichlorophenyl)methyl]-N-[4-{[2-(dimethylamino)ethyl]oxy}-3-(hydroxymethyl)phenyl]-5-methyl-1H-1,2,3-triazole-4-carboxamide] displayed a melting point of 163.1 °C.
`Cc1c(C(=O)Nc2cc(CO)cc(CO)c2)nnn1Cc1ccc(Cl)c(Cl)c1` [Example 52, N-[3,5-bis(Hydroxymethyl)phenyl]-1-[(3,4-dichlorophenyl)methyl]-5-methyl-1H-1,2,3-triazole-4-carboxamide] came in with a melting point of 194.5 °C.
On to `CC(=O)OCc1cccc(NC(=O)c2nnn(Cc3ccc(Cl)c(Cl)c3)c2C)c1` [Example 70, {3-[({1-[(3,4-Dichlorophenyl)methyl]-5-methyl-1H-1,2,3-triazol-4-yl}carbonyl)amino]phenyl}methyl acetate], for which the melting point is > 70 °C.
Same read-out and setting: next, `Cc1c(C(=O)Nc2ccc(OCCO)cc2)nnn1Cc1ccc(Cl)c(Cl)c1` [Example 74, 1-[(3,4-Dichlorophenyl)methyl]-N-{4-[(2-hydroxyethyl)oxy]phenyl}-5-methyl-1H-1,2,3-triazole-4-carboxamide]: 140 °C; `COC(=O)c1ccc(Cl)c(NC(=O)c2nnn(Cc3ccc(Cl)c(Cl)c3)c2C)c1` [Example 34, Methyl 4-chloro-3-[({1-[(3,4-dichlorophenyl)methyl]-5-methyl-1H-1,2,3-triazol-4-yl}carbonyl)amino]benzoate]: 206.4 °C; `Cc1c(C(=O)Nc2cccc(CO)c2)nnn1Cc1ccc(Cl)c(Cl)c1` [Example 24, 1-[(3,4-Dichlorophenyl)methyl]-N-[3-(hydroxymethyl)phenyl]-5-methyl-1H-1,2,3-triazole-4-carboxamide]: 185.2 °C.
For the compound `Cc1c(C(=O)Nc2ccc(OCCC(C)C)cc2)nnn1Cc1ccc(C(C)C)cc1`, the melting point was 114 °C (dec.).
Compound `Cc1c(C(=O)Nc2cc(CO)ccc2Cl)nnn1Cc1ccc(Cl)c(Cl)c1` [Example 56, N-[2-Chloro-5-(hydroxymethyl)phenyl]-1-[(3,4-dichlorophenyl)methyl]-5-methyl-1H-1,2,3-triazole-4-carboxamide] yielded a melting point of 220 °C.
`CC(=O)Nc1cccc(NC(=O)c2nnn(Cc3ccc(Cl)c(Cl)c3)c2C)c1` [Example 21, N-[3-(Acetylamino)phenyl]-1-[(3,4-dichlorophenyl)methyl]-5-methyl-1H-1,2,3-triazole-4-carboxamide] showed a melting point of 203.4 °C.
For the compound `CC(=O)NCc1cccc(NC(=O)c2nnn(Cc3ccc(Cl)c(Cl)c3)c2C)c1` [Example 43, N-{3-[(Acetylamino)methyl]phenyl}-1-[(3,4-dichlorophenyl)methyl]-5-methyl-1H-1,2,3-triazole-4-carboxamide], the melting point worked out at 188.4 °C.
Same read-out and setting: next, `CNC(=O)c1cc(CO)cc(NC(=O)c2nnn(Cc3ccc(Cl)c(Cl)c3)c2C)c1` [Example 92, 1-[(3,4-Dichlorophenyl)methyl]-N-{3-(hydroxymethyl)-5-[(methylamino)carbonyl]phenyl}-5-methyl-1H-1,2,3-triazole-4-carboxamide]: 223 to 225 °C.
With `COC(=O)c1ccc(NC(=O)c2nnn(Cc3ccc(Cl)c(Cl)c3)c2C)cc1C(=O)OC` [Example 46, Dimethyl 4-[({1-[(3,4-dichlorophenyl)methyl]-5-methyl-1H-1,2,3-triazol-4-yl}carbonyl)amino]-1,2-benzenedicarboxylate], the melting point was determined as 148 °C.
`COC(=O)Cc1cccc(NC(=O)c2nnn(Cc3ccc(Cl)c(Cl)c3)c2C)c1` [Example 30, Methyl {3-[({1-[(3,4-dichlorophenyl)methyl]-5-methyl-1H-1,2,3-triazol-4-yl}carbonyl)amino]phenyl}acetate] registered a melting point of 116 °C.
Still for that read-out and setting: under `Cc1c(C(=O)Nc2ccc(CO)cc2)nnn1Cc1ccc(F)cc1` [Example 90, 1-[(4-Fluorophenyl)methyl]-N-[4-(hydroxymethyl)phenyl]-5-methyl-1H-1,2,3-triazole-4-carboxamide] stands 145.6 °C.
As for `Cc1c(C(=O)Nc2ccc(CO)cc2)nnn1Cc1ccccc1` [Example 38, N-[4-(Hydroxymethyl)phenyl]-5-methyl-1-(phenylmethyl)-1H-1,2,3-triazole-4-carboxamide], the melting point was 149.1 °C.
`Cc1c(C(=O)Nc2cccc(C(=O)NCCO)c2)nnn1Cc1ccc(Cl)c(Cl)c1` [Example 68, 1-[(3,4-Dichlorophenyl)methyl]-N-(3-{[(2-hydroxyethyl)amino]carbonyl}phenyl)-5-methyl-1H-1,2,3-triazole-4-carboxamide] yielded a melting point of 190.7 °C.
The compound `Cc1c(C(=O)Nc2cc(CO)ccc2F)nnn1Cc1ccc(Cl)c(Cl)c1` [Example 55, 1-[(3,4-Dichlorophenyl)methyl]-N-[2-fluoro-5-(hydroxymethyl)phenyl]-5-methyl-1H-1,2,3-triazole-4-carboxamide] showed a melting point of 210.5 °C.
`COC(=O)c1ccc(NC(=O)c2nnn(Cc3ccc(Cl)c(Cl)c3)c2C)cc1OC` [Example 28, Methyl 4-[({1-[(3,4-dichlorophenyl)methyl]-5-methyl-1H-1,2,3-triazol-4-yl}carbonyl)amino]-2-(methyloxy)benzoate] showed a melting point of 175.9 °C.
The same measure, in the same setting: next, `Cc1c(C(=O)Nc2ccc(OCCC(C)C)cc2)nnn1Cc1ccc(Br)cc1`: 137 °C; `Cc1c(CNc2cc(CO)cc(CO)c2)nnn1Cc1ccc(Cl)c(Cl)c1` [Example 79, {5-[({1-[(3,4-Dichlorophenyl)methyl]-5-methyl-1H-1,2,3-triazol-4-yl}methyl)amino]benzene-1,3-diyl}dimethanol]: 120 °C; `COC(=O)c1ccc(OC)c(NC(=O)c2nnn(Cc3ccc(Cl)c(Cl)c3)c2C)c1` [Example 25, Methyl 3-[({1-[(3,4-dichlorophenyl)methyl]-5-methyl-1H-1,2,3-triazol-4-yl}carbonyl)amino]-4-(methyloxy)benzoate]: 203 °C.
On to `COc1ccc(NC(=O)c2nnn(Cc3ccc(Br)cc3)c2C)cc1OC`, for which the melting point was determined as 173 °C.
For the compound `COc1ccc(NC(=O)c2nnn(Cc3ccc(C)cc3)c2C)cc1OC`, the melting point is 156 °C (dec.).

The next series concerns the target T1, SCD (Rattus norvegicus, UniProt P07308).
T1 construct: SCD-containing rat microsomes (2 μg protein); from tissue
T1 sequence (P07308 1-358): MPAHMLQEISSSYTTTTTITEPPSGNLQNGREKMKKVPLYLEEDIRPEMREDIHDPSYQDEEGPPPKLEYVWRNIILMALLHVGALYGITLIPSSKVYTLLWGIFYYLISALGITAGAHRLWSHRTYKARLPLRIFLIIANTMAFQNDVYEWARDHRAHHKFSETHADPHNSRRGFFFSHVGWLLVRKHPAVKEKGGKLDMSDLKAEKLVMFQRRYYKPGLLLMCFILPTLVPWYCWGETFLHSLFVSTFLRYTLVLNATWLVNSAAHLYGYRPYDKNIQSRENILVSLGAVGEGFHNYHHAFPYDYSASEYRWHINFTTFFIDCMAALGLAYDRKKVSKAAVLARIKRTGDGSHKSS
As to the kind of experiment: in vitro assay for SCD activity based on production of [3H]H2O. In kind it is biochemical. As to conditions: SCD-containing rat microsomes (2 μg protein), [9,10-3H] stearoyl Coenzyme A 1 μM, 6 min incubation. As for the experimental part:
The compounds of the present invention may be analysed in vitro for SCD activity using an assay based on the production of [^3H]H2O, which is released during the enzyme-catalyzed generation of the monounsaturated fatty acyl CoA product. The assay is performed in a 96-well filtration plates. The titrated substrate used in the assay is the [9,10-^3H] stearoyl Coenzyme A. After incubation for 6 minutes of SCD-containing rat microsomes (2 μg protein) and substrate (1 μM), the labelled fatty acid acyl-CoA species and microsomes are absorbed with charcoal and separated from [^3H]H2O by centrifugation. The formation of [^3H]H2O is used as a measure of SCD activity. Compounds at concentrations starting at 10 μM to 0.1 nM or vehicle (DMSO) are preincubated for 5 minutes with the microsomes before addition of the substrate. The concentration-responses are fitted with sigmoidal curves to obtain IC50 values.
As to `COc1ccc(NC(=O)c2nnn(Cc3ccc(C(C)C)cc3)c2C)cc1OC` [N-[3,4-Bis(methyloxy)phenyl]-5-methyl-1-{[4-(1-methylethyl)phenyl]methyl}-1H-1,2,3-triazole-4-carboxamide], the IC50 (commonly the midpoint of a concentration-inhibition curve) was > 10 µM.
For the compound `COC(=O)c1cc(NC(=O)c2nnn(Cc3cccc(Cl)c3)c2C)cc(C(=O)OC)c1` [Dimethyl 5-[({1-[(3-chlorophenyl)methyl]-5-methyl-1H-1,2,3-triazol-4-yl}carbonyl)amino]-1,3-benzenedicarboxylate], the IC50 was > 10 µM.
Consider `CNC(=O)c1cc(NC(=O)c2nnn(Cc3ccc(Cl)c(Cl)c3)c2C)cc(C(=O)NC)c1` [5-[({1-[(3,4-Dichlorophenyl)methyl]-5-methyl-1H-1,2,3-triazol-4-yl}carbonyl)amino]-N,N′-dimethyl-1,3-benzenedicarboxamide], for which the IC50 was > 10 µM.
Take `COC(=O)c1ccc(NC(=O)c2nnn(Cc3ccccc3)c2C)cc1C(=O)OC` [Dimethyl 4-({[5-methyl-1-(phenylmethyl)-lH-1,2,3-triazol-4-yl]carbonyl}amino)-1,2-benzenedicarboxylate]: the IC50 was > 10 µM.
As to `COC(=O)c1cc(NC(=O)c2nnn(Cc3ccccc3)c2C)cc(C(=O)OC)c1` [Dimethyl 5-({[5-methyl-1-(phenylmethyl)-lH-1,2,3-triazol-4-yl]carbonyl}amino)-1,3-benzenedicarboxylate], the IC50 is > 10 µM.
With `COC(=O)c1cc(NC(=O)c2nnn(Cc3ccc(F)cc3)c2C)cc(C(=O)OC)c1` [Dimethyl 5-[({1-[(4-fluorophenyl)methyl]-5-methyl-1H-1,2,3-triazol-4-yl}carbonyl)amino]-1,3-benzenedicarboxylate], the IC50 is > 10 µM.
The same measure, in the same setting: next, `Cc1c(C(=O)Nc2ccc(OCCC(C)C)cc2)nnn1Cc1ccc(-c2ccccc2)cc1` [1-(4-Biphenylylmethyl)-5-methyl-N-{4-[(3-methylbutyl)oxy]phenyl}-1H-1,2,3-triazole-4-carboxamide]: > 10 µM; `COC(=O)c1cc(NC(=O)c2nnn(Cc3ccc(Cl)c(Cl)c3)c2C)cc(C(=O)OC)c1` [Dimethyl 5-[({1-[(3,4-dichlorophenyl)methyl]-5-methyl-1H-1,2,3-triazol-4-yl}carbonyl)amino]-1,3-benzenedicarboxylate]: > 10 µM.
